Numbering of substitutions follows the chain as printed.
Legend:
5-HT3A receptor M235A = target: T1, 5-HT3A receptor M235A (Mus musculus, UniProt P23979, M262A); test: [3H]GR65630 saturation binding, M235A receptor, HEK293 cell membranes; conditions: mean and SEM, n ≥ 3
T1 construct: expressed in transfected cells; host or cells: HEK293
T1 sequence (P23979 24-489 M262A): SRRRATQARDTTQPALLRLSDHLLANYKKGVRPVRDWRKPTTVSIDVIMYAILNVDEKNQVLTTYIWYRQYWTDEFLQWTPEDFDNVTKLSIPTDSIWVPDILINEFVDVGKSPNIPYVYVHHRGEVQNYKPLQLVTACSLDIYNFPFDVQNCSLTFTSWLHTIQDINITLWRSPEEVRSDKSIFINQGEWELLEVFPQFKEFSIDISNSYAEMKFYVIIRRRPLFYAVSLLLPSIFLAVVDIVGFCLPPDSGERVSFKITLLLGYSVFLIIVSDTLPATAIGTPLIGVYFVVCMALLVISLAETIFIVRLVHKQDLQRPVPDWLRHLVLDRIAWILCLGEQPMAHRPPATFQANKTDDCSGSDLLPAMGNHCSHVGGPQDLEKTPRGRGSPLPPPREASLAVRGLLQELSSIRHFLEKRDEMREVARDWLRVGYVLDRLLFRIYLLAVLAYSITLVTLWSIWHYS
Procedure: (§1) The mouse 5-HT3A cDNA (Q6J1J7) in pcDNA3.1 (for HEK cell transfection) or pGEMHE (for RNA production) was modified by QuikChange site-directed mutagenesis (Agilent Technologies) to create point mutants (verified by sequencing).
(§2) Human embryonic kidney (HEK) 293 cells were maintained at 37 °C at 5% CO2 in a humidified atmosphere, in Dulbecco's Modified Eagle's Medium/Nutrient Mix F12 (1:1) (Invitrogen, Paisley, UK) with GlutaMAX^TM and 10% fetal bovine serum (GE Healthcare) (DMEM/FBS) and passaged when confluent. Five micrograms of WT or mutant 5-HT3A DNA and 30 μl polyethyleneamine (Polysciences) incubated for 10 min in 1 mL DMEM was added to 60% confluent HEK293 cells for transfection, and cells grown for 2 days before assays.
(§3) This was performed as previously described. Lummis and Thompson ([2013]) Briefly receptors in crude HEK293 cell membranes were labeled with the 5-HT3R antagonist [^3H]GR65630 by incubation in 0.5 mL 10 mM HEPES buffer pH 7.5 for 1 h on ice, using 1 μM quipazine to determine non-specific binding. Data were analyzed in GraphPad Prism by iterative curve fitting.

5-HT3A receptor K255L = target: T2, 5-HT3A receptor K255L (Mus musculus, UniProt P23979, K282L); test: [3H]GR65630 saturation binding, K255L receptor, HEK293 cell membranes; conditions: mean and SEM, n ≥ 3
T2 construct: expressed in transfected cells
T2 sequence (P23979 24-489 K282L): T1 sequence (P23979 24-489 M262A) with A239M, K259L
Procedure: as §1, §2, §3

5-HT3A receptor C290A = target: T3, 5-HT3A receptor C290A (Mus musculus, UniProt P23979, C317A); test: [3H]GR65630 saturation binding, C290A receptor, HEK293 cell membranes; parameters: expressed in transfected cells; host or cells: HEK293; conditions: mean and SEM, n ≥ 3
T3 sequence (P23979 24-489 C317A): T1 sequence (P23979 24-489 M262A) with A239M, C294A
Procedure: as §1, §2, §3

WT 5-HT3A receptor = target: T4, WT 5-HT3A receptor (Mus musculus, UniProt P23979); test: [3H]GR65630 saturation binding, WT receptor, HEK293 cell membranes; conditions: mean and SEM, n ≥ 3
T4 construct: expressed in transfected cells; host or cells: HEK293
T4 sequence (P23979 24-483 isoform P23979-2 limits assumed): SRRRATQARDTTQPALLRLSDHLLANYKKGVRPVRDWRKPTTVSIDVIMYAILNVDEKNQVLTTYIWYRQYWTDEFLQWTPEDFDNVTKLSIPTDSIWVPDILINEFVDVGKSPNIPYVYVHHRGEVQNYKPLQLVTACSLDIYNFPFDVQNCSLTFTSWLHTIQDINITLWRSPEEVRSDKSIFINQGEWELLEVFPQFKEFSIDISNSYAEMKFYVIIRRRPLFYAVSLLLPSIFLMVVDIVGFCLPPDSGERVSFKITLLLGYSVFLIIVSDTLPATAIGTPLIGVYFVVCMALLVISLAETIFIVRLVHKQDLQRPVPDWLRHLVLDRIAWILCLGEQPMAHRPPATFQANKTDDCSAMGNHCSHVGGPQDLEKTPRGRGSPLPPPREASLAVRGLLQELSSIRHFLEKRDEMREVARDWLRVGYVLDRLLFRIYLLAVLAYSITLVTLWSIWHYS
Procedure: as §1, §2, §3

5-HT3A receptor Y441A = target: T5, 5-HT3A receptor Y441A (Mus musculus, UniProt P23979, Y468A); parameters: expressed in transfected cells; method as in Mesoy et al., [2019]; conditions: HEK293 cells, ref Mesoy et al., [2019]; cited from earlier work
T5 sequence (P23979 24-489 Y468A): T1 sequence (P23979 24-489 M262A) with A239M, Y445A

5-HT3A receptor D238A = target: T6, 5-HT3A receptor D238A (Mus musculus, UniProt P23979, D265A); test: [3H]GR65630 saturation binding, D238A receptor, HEK293 cell membranes; parameters: expressed in transfected cells; host or cells: HEK293; conditions: mean and SEM, n ≥ 3
T6 sequence (P23979 24-489 D265A): T1 sequence (P23979 24-489 M262A) with A239M, D242A
Procedure: as §1, §2, §3

SMILES: Cc1[nH]cnc1CCC(=O)c1cn(C)c2ccccc12 [[^3H]GR65630]
- Bmax (5-HT3A receptor M235A): 2.4 ± 0.4 pmol/mg protein
- Kd (5-HT3A receptor M235A): 700 ± 90 pM
- Bmax (5-HT3A receptor K255L): 0.4 ± 0.2 pmol/mg protein
- Kd (5-HT3A receptor K255L): 170 ± 20 pM
- Bmax (5-HT3A receptor C290A): 3.8 ± 0.3 pmol/mg protein
- Kd (5-HT3A receptor C290A): 850 ± 100 pM
- Bmax (WT 5-HT3A receptor): 1.2 ± 0.8 pmol/mg protein
- Kd (WT 5-HT3A receptor): 180 ± 30 pM
- level of [3H]GR65630 binding sites (5-HT3A receptor Y441A): high levels
- Bmax (5-HT3A receptor D238A): 1.8 ± 0.4 pmol/mg protein
- Kd (5-HT3A receptor D238A): 500 ± 70 pM
